Legend:
CsiD = target: T1, CsiD (Escherichia coli, UniProt P76621); test: CsiD activity assay, product inhibition; format: biochemical; details: reaction product
T1 construct: gene glaH; full ORF, N-terminal 6xHis tag (pET28a), expressed in E. coli BL21(DE3); Fe(II); homotetramer
T1 sequence (P76621 1-325): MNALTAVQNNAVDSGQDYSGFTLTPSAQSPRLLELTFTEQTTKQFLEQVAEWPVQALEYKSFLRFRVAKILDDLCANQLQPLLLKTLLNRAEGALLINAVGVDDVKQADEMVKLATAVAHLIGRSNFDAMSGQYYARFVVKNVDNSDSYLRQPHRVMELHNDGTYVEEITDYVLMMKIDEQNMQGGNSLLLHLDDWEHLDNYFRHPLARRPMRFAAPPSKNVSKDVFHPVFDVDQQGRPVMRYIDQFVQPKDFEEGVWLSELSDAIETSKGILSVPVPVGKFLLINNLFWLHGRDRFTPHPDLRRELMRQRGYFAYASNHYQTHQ

CsiR = target: T2, CsiR (Escherichia coli, UniProt P37338); test: filter binding assay with […]-labelled csiD promoter DNA; details: 1 mM ligand, Tris-HCl pH 7.6, 5 mM MgCl2; allosteric relief of DNA binding
T2 construct: gene glaR; full ORF, N-terminal 6xHis tag (pET28a), expressed in E. coli BL21(DE3)
T2 sequence (P37338 1-220): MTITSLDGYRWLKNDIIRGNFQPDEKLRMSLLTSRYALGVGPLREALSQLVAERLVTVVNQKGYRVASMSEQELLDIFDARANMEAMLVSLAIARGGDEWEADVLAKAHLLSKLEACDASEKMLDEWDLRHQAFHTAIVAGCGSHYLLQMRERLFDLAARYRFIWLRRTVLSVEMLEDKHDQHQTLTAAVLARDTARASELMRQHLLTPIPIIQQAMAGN

SMILES | weak inhibition (CsiD) | reduced DNA binding at 1 mM (CsiR)
O=C(O)CC[C@H](O)C(=O)O [L-2-hydroxyglutarate] | We did observe weak inhibition of CsiD by its product L2HG | 
O=C(O)CCCC(=O)O [glutarate] |  | repressive effect at the csiD promoter site is specifically relieved upon GA binding

— PMC6265302, “Widespread bacterial lysine degradation proceeding via glutarate and L-2-hydroxyglutarate” (Nature Communications, 2018)
